{"source": "paper PMC13626057", "about": "“Sensitizing tumor response to topoisomerase I antibody-drug conjugate by selective CDK7 inhibition” (Science Advances, 2026)", "key": {"[1]": {"tested_on": "H292 xenograft", "assay": "H292 cell line-derived xenograft efficacy", "assay_type": "in vivo, BALB/c nude mice", "settings": "for tumor growth inhibition (TGI): by day 28", "method": "BALB/c nude mice were purchased from the Shanghai SIPPR/BK Laboratory Animal Co. Ltd. (Shanghai, China). For in vivo efficacy studies, HCT116 cells or H292 cells were resuspended in PBS and Matrigel (1:1) and implanted subcutaneously. When tumors reached an average size of 117 mm^3 (HCT116) or 140 mm^3 (H292), mice were randomized into four groups (n = 8 per group) and treated with Q901 (3 or 10 mg/kg, intraperitoneally once daily), T-DXd (10 mg/kg, single intravenous administration on day 0), SG (3 mg/kg, single intravenous administration on days 1 and 8), or a combination thereof. Tumor volumes were measured twice weekly after randomization in two dimensions, using a caliper. The TGI was calculated for each group using the formula: TGI (%) = [1 − (Ti − T0)/(Vi − V0)] × 100, where Ti is the average tumor volume of the treatment group on the given day, T0 is the average tumor volume of the treatment group on the day when the treatment was started, Vi is the average tumor volume of the vehicle control group on the same day with Ti, and V0 is the average tumor volume of the vehicle group on the day of treatment start. Statistical significance was calculated using a two-way analysis of variance (ANOVA) followed by Tukey’s multiple comparison test in GraphPad Prism 10.4.1."}, "[2]": {"tested_on": "other CDKs", "assay": "Radiometric 28 CDK titration assay, selectivity over other CDKs", "assay_type": "biochemical", "settings": "ranging from 242-fold to over 1000-fold", "method": "(§1) A radiometric protein kinase assay service was provided by Reaction Biology (Freiburg, Germany) to measure the kinase activity of 410 protein kinases and 28 CDKs.\n(§2) In the 28 CDK titration assay, the residual activity and IC50 values of the compound were calculated using the Quattro Workflow V3.1.1 (Quattro Research GmbH, Munich, Germany). The ATP concentration used in each kinase reaction was set to the apparent ATP-Km value. Dose-response curve fitting was performed using a four-parameter logistic regression model in GraphPad Prism 10.4.1 (GraphPad Software, Boston, MA, USA)."}, "[3]": {"tested_on": "H292 cells", "assay": "H292 cell viability, single agent and combination (SynergyFinder, ATP Lite)", "assay_type": "cell-based", "settings": "72 hours", "method": "(§3) SynergyFinder was performed by Oncolines (Oss, Netherlands). […] The absolute IC5_0 values were determined from the dose-response curves generated in XL-fit 5 using the four-parameter logistic equation: fit = A + ((B − A)/{1 + [(C/x)^D]}), where A and B represent the bottom and top plateaus of the curve, C is the IC5_0 value, x is the compound concentration, and D is the Hill slope."}, "[4]": {"tested_on": "MCF-7 cells", "assay": "MCF-7 cell viability (ATP Lite system)", "assay_type": "cell-based", "settings": "Homo sapiens, MCF7, read-out: IC50 MCF-7 cell growth", "method": "Fig. 2. Q901 alters RNAPII phosphorylation and transcriptional activity. (A) MCF-7 cells were treated with Q901 at the indicated concentrations for 72, 96, or 120 hours. Cell viability was measured using the ATP Lite system. Inhibition (%) was plotted against the log-transformed Q901 concentration (μM) (n = 3 to 4). Data represent means ± SD. (B and C) RNAPII ChIP-seq was performed following treatment with 100 nM Q901 for the indicated duration. (B) Volcano plot of pan RNAPII ChIP-seq signals after Q901 treatment [n = 2; blue dot indicates P value ≤ 0.05 and log2 fold change (log2FC) ≤ −0.58; red dot indicates P value ≤ 0.05 and log2FC ≥ 0.58]. […] CDK7 ChIP-seq was performed with 100 nM Q901 for the indicated durations.\nCells were seeded into 96-well plates and treated with compounds at the indicated concentrations and time points. After incubation, cell viability was measured using either CellTiter-Glo luminescent cell viability assay (Promega, Madison, WI, USA, G7572) according to the manufacturer’s instructions. Plates were equilibrated to RT for 30 min before adding 50 μl of CellTiter-Glo reagent to each well. Luminescence was measured using the EnVision Multi Label Reader (PerkinElmer, Waltham, MA, USA). Dose-response curves were fitted using a nonlinear regression model with a sigmoidal dose-response function in GraphPad Prism 10.4.1. The absolute IC5_0 values were calculated using the dose-response curves generated in XL-fit 5 (IDBS Software, Woking, UK) and fitted with the four-parameter logistic equation: fit = A + ((B − A)/{1 + [(C/x)^D]}), where A and B represent the bottom and top plateaus of the curve, respectively, C is the IC5_0 value, x is the compound concentration, and D is the Hill slope."}, "[5]": {"tested_on": "HCT116 cells", "assay": "HCT116 cell viability, single agent and combination (SynergyFinder, ATP Lite)", "assay_type": "cell-based", "settings": "Homo sapiens, HCT-116; 72 hours, alone", "method": "as §3"}, "[6]": {"target": "T1, recombinant human CDK7/cyclin H/MNAT1 (Homo sapiens, UniProt P50613)", "T1 construct": "His-tag; purchased Invitrogen PR6749B", "assay": "LANCE Ultra TR-FRET CDK7 kinase assay (cell-free enzymatic assay)", "assay_type": "biochemical", "settings": "eight-point dilution, top 3000 nM, read-out: IC50 against CDK7", "method": "CDK7 kinase activity was measured using a LANCE Ultra TR-FRET kinase assay (Revvity, formerly PerkinElmer, Waltham, MA, USA) according to the manufacturer’s protocol. Briefly, recombinant human CDK7/cyclin H/MNAT1 His-tag protein (Invitrogen, PR6749B) was incubated with compounds (Q901, Q901R, and QS0551508) in kinase buffer in a 384-well format. The assay used a ULight-labeled peptide substrate and a europium-labeled anti-phospho antibody for time-resolved fluorescence resonance energy transfer (TR-FRET) detection.\nTR-FRET signals were measured using an EnVision multimode plate reader (Revvity, EnVision 2105 Alpha) with LANCE/DELFIA detection settings.\nCompounds were tested using an eight-point serial dilution (top concentration: 3000 nM, 1:4 dilution). Signals were normalized to DMSO-treated controls to calculate residual kinase activity (%), and dose-response curves were generated using GraphPad Prism 10.4.1."}, "[7]": {"target": "T2, CDK8 (Homo sapiens, UniProt P49336)", "T2 construct": "purchased Reaction Biology (Freiburg, Germany), assay service", "T2 sequence (P49336 whole entry)": "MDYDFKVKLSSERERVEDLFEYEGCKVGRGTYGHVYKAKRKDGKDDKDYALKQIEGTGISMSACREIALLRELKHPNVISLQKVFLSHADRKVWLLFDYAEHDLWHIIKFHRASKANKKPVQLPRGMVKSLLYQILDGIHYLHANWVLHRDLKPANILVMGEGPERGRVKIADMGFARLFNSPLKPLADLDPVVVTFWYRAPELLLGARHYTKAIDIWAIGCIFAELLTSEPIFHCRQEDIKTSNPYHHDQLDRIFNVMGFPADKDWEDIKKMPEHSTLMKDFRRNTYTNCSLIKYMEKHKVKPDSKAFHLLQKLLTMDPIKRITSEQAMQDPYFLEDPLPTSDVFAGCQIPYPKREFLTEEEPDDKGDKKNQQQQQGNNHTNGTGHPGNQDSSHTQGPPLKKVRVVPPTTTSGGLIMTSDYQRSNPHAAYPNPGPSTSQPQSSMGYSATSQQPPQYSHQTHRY", "T2 sequence (P24863 whole entry partner)": "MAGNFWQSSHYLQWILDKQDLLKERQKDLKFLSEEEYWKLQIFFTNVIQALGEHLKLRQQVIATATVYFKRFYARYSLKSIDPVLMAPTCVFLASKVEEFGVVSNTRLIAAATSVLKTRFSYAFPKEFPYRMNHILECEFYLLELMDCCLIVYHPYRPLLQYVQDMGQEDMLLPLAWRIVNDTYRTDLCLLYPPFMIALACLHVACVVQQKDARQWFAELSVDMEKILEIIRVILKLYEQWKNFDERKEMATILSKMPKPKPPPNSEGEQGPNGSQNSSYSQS", "assay": "Radiometric 28 CDK titration assay", "assay_type": "biochemical", "method": "as §1, §2"}, "[8]": {"target": "T3, CDK9 (Homo sapiens, UniProt P50750)", "T3 construct": "purchased Reaction Biology (Freiburg, Germany), assay service", "T3 sequence (P50750 whole entry)": "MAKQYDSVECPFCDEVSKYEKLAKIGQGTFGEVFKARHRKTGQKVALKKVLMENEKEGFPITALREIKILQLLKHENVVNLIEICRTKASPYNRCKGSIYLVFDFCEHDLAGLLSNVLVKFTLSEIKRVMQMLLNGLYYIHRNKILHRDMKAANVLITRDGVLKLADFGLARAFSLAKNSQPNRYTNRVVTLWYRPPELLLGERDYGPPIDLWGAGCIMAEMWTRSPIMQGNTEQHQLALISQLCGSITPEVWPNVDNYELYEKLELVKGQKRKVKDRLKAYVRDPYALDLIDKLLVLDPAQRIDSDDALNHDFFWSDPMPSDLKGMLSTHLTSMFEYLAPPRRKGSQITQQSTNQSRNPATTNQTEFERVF", "T3 sequence (O60563 whole entry partner)": "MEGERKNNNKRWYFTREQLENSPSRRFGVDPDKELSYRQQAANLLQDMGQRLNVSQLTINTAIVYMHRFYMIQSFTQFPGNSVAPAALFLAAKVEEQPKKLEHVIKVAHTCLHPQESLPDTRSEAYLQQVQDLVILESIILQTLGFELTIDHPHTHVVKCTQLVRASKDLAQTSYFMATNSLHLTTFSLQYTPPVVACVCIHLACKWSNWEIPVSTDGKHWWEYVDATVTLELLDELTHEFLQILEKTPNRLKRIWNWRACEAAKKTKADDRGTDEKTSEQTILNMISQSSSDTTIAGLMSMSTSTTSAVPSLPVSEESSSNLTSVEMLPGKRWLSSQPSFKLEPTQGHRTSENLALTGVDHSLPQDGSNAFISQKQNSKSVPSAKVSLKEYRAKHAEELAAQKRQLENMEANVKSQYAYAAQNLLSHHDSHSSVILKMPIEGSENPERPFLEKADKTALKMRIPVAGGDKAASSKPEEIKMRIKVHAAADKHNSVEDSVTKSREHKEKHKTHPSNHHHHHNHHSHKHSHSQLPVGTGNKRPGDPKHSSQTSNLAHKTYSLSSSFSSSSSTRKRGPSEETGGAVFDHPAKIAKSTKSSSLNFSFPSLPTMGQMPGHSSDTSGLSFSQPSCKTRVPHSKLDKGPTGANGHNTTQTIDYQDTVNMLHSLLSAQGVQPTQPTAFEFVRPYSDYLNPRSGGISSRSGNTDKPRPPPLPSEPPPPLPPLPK", "assay": "Radiometric 28 CDK titration assay", "assay_type": "biochemical", "method": "as §1, §2"}, "[9]": {"target": "T4, CDK13 (Homo sapiens, UniProt Q14004)", "T4 construct": "purchased Reaction Biology (Freiburg, Germany), assay service", "assay": "Radiometric 28 CDK titration assay", "assay_type": "biochemical", "method": "as §1, §2"}, "[10]": {"target": "T5, CDK12 (Homo sapiens, UniProt Q9NYV4)", "T5 construct": "purchased Reaction Biology (Freiburg, Germany), assay service", "T5 sequence (Q9NYV4 whole entry)": "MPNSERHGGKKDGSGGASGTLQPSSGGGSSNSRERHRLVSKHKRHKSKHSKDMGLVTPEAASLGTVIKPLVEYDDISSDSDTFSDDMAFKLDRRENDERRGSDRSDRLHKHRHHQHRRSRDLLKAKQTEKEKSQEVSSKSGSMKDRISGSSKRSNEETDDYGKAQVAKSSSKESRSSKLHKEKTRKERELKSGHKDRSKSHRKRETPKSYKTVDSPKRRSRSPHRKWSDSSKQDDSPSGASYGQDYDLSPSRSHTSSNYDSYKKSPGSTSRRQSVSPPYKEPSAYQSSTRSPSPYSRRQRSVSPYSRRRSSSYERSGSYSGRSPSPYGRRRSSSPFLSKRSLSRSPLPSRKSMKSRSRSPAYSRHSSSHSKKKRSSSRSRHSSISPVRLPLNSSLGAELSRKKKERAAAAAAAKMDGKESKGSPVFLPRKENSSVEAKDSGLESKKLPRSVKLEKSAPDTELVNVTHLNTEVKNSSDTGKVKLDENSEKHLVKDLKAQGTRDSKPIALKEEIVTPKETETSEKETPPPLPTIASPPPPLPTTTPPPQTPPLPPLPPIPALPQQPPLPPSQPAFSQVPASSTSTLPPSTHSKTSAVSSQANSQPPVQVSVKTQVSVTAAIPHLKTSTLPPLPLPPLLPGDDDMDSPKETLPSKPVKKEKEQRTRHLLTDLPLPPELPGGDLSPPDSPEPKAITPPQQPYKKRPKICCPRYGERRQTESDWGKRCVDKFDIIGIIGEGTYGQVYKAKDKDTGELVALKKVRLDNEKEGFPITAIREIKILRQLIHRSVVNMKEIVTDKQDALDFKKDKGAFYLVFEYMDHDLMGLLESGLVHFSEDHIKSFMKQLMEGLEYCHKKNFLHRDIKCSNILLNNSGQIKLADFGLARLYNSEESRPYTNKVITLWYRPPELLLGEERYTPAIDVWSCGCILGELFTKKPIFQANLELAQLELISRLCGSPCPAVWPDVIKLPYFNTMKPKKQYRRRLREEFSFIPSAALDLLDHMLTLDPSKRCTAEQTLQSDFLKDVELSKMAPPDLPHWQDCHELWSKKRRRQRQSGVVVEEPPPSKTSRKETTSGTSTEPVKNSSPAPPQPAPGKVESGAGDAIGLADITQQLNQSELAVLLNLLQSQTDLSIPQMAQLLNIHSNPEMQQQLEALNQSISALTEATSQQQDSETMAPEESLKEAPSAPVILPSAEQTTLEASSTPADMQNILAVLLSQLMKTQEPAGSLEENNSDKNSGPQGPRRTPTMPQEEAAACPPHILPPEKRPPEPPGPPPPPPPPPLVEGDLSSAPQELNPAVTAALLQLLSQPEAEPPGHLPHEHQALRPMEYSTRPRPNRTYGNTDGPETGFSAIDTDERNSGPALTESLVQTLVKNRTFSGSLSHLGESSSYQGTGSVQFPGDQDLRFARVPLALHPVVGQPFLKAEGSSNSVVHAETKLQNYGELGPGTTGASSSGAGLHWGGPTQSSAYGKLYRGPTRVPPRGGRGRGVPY", "T5 sequence (O75909 whole entry partner)": "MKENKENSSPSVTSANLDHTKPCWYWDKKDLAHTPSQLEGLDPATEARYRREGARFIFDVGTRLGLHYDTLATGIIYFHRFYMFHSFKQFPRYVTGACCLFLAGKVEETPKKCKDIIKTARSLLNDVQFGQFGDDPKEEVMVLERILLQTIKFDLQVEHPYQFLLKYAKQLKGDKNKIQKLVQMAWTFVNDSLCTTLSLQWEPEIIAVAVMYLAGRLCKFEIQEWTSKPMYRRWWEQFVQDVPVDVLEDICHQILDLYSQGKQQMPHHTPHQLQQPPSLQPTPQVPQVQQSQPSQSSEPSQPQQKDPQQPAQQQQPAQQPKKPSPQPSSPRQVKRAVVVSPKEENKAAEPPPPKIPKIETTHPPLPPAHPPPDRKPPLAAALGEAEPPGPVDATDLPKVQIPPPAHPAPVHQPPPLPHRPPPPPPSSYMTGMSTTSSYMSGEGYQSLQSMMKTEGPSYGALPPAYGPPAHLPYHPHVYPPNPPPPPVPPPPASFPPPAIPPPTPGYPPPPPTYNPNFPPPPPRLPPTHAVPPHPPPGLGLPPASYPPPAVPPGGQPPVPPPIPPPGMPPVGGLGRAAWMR", "assay": "Radiometric 28 CDK titration assay", "assay_type": "biochemical", "method": "as §1, §2"}, "[11]": {"target": "T6, recombinant CDK7/cyclin H/MAT1 (CAK) trimeric complex (Homo sapiens, UniProt P50613)", "T6 construct": "purchased Thermo Fisher Scientific PV3868", "assay": "Covalent binding site evaluation by mass spectrometry", "settings": "incubated 1 hour with CAK complex, Arg-C or Arg-C/trypsin digestion", "method": "The recombinant CAK complex (CDK7/cyclin H/MAT1; Thermo Fisher Scientific, PV3868) was incubated with Q901 or DMSO for 1 hour at room temperature (RT), and the reaction complexes were resolved by SDS–polyacrylamide gel electrophoresis (PAGE). The bands corresponding to CDK7 were excised for in-gel digestion. Denaturation, reduction, and alkylation were performed using 8 M urea, TCEP, and iodoacetamide at RT, followed by Arg-C digestion (1:100 Arg-C:protein ratio, at 37°C for 18 hours) and Arg-C/trypsin digestion (1:100 Arg-C:protein ratio and 1:50 trypsin:protein ratio, at 37°C for 18 hours). The extracted peptides were loaded and eluted using a high-performance liquid chromatography (HPLC) system and then separated through a linear gradient (3 to 60% mobile phase B in 120 min) at a flow rate of 0.3 μl/min using EASY-Spray HPLC Columns (75 μm/500 mm) (Thermo Fisher Scientific, ES903) at 40°C and introduced into an Orbitrap Exploris 240 LC-MS/MS System (Thermo Fisher Scientific, BRE725535) in positive ion mode and run in data-independent acquisition (DIA) mode. Data acquisition was performed over a mass/charge ratio (m/z) range of 390 to 1010, and peak integrations for fragment ions of the most intense charge state of the doubly carbamidomethylated Cys^312-containing peptide were analyzed using the Skyline software 24.1 (Seattle, WA, USA). […]"}, "[12]": {"target": "T7, CDK7 (Homo sapiens, UniProt P50613)", "T7 construct": "purchased Reaction Biology (Freiburg, Germany), assay service", "T7 sequence (P50613 whole entry)": "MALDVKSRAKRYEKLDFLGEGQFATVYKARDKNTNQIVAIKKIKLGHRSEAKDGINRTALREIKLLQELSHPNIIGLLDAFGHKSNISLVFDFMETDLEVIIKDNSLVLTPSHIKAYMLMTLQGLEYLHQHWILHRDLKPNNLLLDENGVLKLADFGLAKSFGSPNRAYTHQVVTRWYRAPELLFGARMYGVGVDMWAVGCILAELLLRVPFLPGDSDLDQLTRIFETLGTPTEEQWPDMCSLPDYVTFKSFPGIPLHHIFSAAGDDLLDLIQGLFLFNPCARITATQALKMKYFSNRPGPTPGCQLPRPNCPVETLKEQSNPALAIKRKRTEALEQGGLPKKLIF", "T7 sequence (P51946 whole entry partner)": "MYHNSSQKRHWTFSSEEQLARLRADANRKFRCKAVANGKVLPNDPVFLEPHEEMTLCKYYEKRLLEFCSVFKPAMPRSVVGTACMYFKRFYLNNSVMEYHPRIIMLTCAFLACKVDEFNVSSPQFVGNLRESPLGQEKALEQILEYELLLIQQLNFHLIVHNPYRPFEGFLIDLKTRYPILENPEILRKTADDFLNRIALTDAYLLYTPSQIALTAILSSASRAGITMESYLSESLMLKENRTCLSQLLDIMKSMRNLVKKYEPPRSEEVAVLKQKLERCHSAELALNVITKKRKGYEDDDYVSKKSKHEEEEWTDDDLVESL", "T7 sequence (P51948 whole entry partner)": "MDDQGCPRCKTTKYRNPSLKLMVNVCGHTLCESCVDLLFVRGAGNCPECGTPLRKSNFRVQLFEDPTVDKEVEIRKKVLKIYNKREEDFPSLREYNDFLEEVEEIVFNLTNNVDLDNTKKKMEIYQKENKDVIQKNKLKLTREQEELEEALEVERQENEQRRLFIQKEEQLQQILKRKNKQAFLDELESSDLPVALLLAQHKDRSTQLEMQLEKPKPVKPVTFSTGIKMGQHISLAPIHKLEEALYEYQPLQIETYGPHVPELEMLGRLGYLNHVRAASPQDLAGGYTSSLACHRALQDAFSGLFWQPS", "assay": "Radiometric protein kinase assay (PanQinase; 410-kinase panel and 28 CDK titration)", "assay_type": "biochemical", "settings": "ATP at apparent ATP-Km", "method": "as §1\nIn the kinase inhibition assay, the residual activity for each compound was calculated using the following formula: Residual activity (%) = 100 × [(signal of compound − low control)/(high control − low control)]. The selectivity score of the compound at the tested concentrations was calculated for residual activity < 50%, that is, inhibition of >50%. The selectivity score for a particular compound at a particular concentration was calculated using the following formula: Selectivity score = (count of data points < 50%)/(total number of data points).\nas §2"}, "[13]": {"tested_on": "HCT116 xenograft", "assay": "HCT116 cell line-derived xenograft efficacy", "assay_type": "in vivo, BALB/c nude mice", "settings": "by day 28; T-DXd 10 mg/kg single iv, Q901 10 mg/kg ip once daily", "protocol": "BALB/c nude mice were purchased from the Shanghai SIPPR/BK Laboratory Animal Co. Ltd. (Shanghai, China). For in vivo efficacy studies, HCT116 cells or H292 cells were resuspended in PBS and Matrigel (1:1) and implanted subcutaneously. […] Tumor volumes were measured twice weekly after randomization in two dimensions, using a caliper. The TGI was calculated for each group using the formula: TGI (%) = [1 − (Ti − T0)/(Vi − V0)] × 100, where Ti is the average tumor volume of the treatment group on the given day, T0 is the average tumor volume of the treatment group on the day when the treatment was started, Vi is the average tumor volume of the vehicle control group on the same day with Ti, and V0 is the average tumor volume of the vehicle group on the day of treatment start. Statistical significance was calculated using a two-way analysis of variance (ANOVA) followed by Tukey’s multiple comparison test in GraphPad Prism 10.4.1."}, "[14]": {"settings": "first regimen: SG 3 mg/kg, Q901 10 mg/kg"}, "[15]": {"settings": "second regimen: SG 10 mg/kg, Q901 3 mg/kg"}}, "note": "Like-named read-outs stand apart in the source and are kept apart here.", "data": [{"molecule": "C=C(F)C(=O)Nc1ccc2c(-c3ccccc3CNc3nc(NC[C@H]4CCNC[C@@H]4O)nc4c(C(C)C)cnn34)nccc2c1", "note": "[Q901]", "values": [{"measurement": "tumor growth inhibition (TGI)", "setting": "[1]; [14]", "result": 80, "unit": "%"}, {"measurement": "tumor growth inhibition (TGI)", "setting": "[1]; [15]", "result": 61, "unit": "%"}, {"measurement": "IC50 values for other CDKs higher than that for CDK7", "setting": "[2]", "result": "≥ 242", "unit": "fold"}, {"measurement": "IC50", "setting": "[3]; Homo sapiens, NCI-H292, Single treatment / monotherapy", "result": 12, "unit": "nM"}, {"measurement": "IC50", "setting": "[4]; 72 hours", "result": 95, "unit": "nM"}, {"measurement": "IC50", "setting": "[4]; 96 hours", "result": 16, "unit": "nM"}, {"measurement": "IC50", "setting": "[4]; 120 hours", "result": 5, "unit": "nM"}, {"measurement": "IC50", "setting": "[5]", "result": 8.4, "unit": "nM"}, {"measurement": "IC50", "setting": "[6]", "result": 10.4, "unit": "nM"}, {"measurement": "fold difference in inhibition of CDK8 compared to CDK7", "setting": "[7]", "result": "> 1000", "unit": "fold"}, {"measurement": "IC50", "setting": "[7]; ATP at apparent ATP-Km", "result": "> 10000", "unit": "nM"}, {"measurement": "fold difference in inhibition of CDK9 compared to CDK7", "setting": "[8]", "result": 715, "unit": "fold"}, {"measurement": "fold difference in inhibition of CDK13 compared to CDK7", "setting": "[9]", "result": 641, "unit": "fold"}, {"measurement": "fold difference in inhibition of CDK12 compared to CDK7", "setting": "[10]", "result": 207, "unit": "fold"}, {"measurement": "reduction of intensity of Cys312-containing peptides (residues 310 to 329 and 310 to 318)", "setting": "[11]", "result": "~99", "unit": "%"}, {"measurement": "inhibition at 1 µM", "setting": "[12]; 1 μM, 1 hour", "result": 99, "unit": "%"}, {"measurement": "remaining activity at 1 µM", "setting": "[12]; 1 μM, 1 hour, read-out: residual activity value CDK7", "result": 1, "unit": "%"}, {"measurement": "IC50", "setting": "[12]; in vitro", "result": 10, "unit": "nM"}, {"measurement": "tumor growth inhibition (TGI)", "setting": "[13]", "result": 81, "unit": "%"}]}, {"molecule": "sacituzumab govitecan [SG]", "values": [{"measurement": "time at which tumors showed regrowth", "setting": "[1]; H292 xenograft, SG alone", "result": "> 14", "unit": "days"}, {"measurement": "tumor growth inhibition (TGI)", "setting": "[1]; [14]", "result": 47, "unit": "%"}, {"measurement": "tumor growth inhibition (TGI)", "setting": "[1]; [15]", "result": 72, "unit": "%"}, {"measurement": "H292 IC50", "setting": "[3]; monotherapy", "result": 0.5, "unit": "µg/mL"}]}]}
